Data on five molecules can be found in PMC3722118, “Hellebrin and its aglycone form hellebrigenin display similar in vitro growth inhibitory effects in cancer cells and binding profiles to the alpha subunits of the Na^+/K^+-ATPase” (Molecular Cancer, 2013).

Structures are written as SMILES. Read-outs that look alike come from different tables or passages of the source.

Assay [1] relates to human cancer cells (A549, U373, Hs683, T98G, MCF-7, SKMEL-28, PC-3, HT-29). Put plainly: MTT growth inhibition, mean over the eight human cancer cell lines. It is filed as cell-based. As to conditions: read-out: IC50 (nM) Mean ± SEM. The source says:
(§1) The histological types and origins of the eight human cancer cell lines that were used for the MTT colorimetric assay are detailed in the legend of Table 1. Two mouse cancer cell lines were also used, the CT26.WT colon cancer cell line (ATCC code CRL-2638) and the B16F10 melanoma cell line (ATCC code CRL-6475). Both cell lines were obtained from the American Type Culture Collection (ATCC, Manassas, VA). A control cell line (human NHDF fibroblasts) was obtained from PromoCell (code c-12300; Heidelberg, Germany). The cell lines detailed in Figure 2A are a generous gift from the National Cancer Institute (NCI, Bethesda, USA) to Steven Karlish’s lab.
(§2) The cancer cells were cultured in RPMI (Lonza, Verviers, Belgium) medium supplemented with 10% heat-inactivated fetal calf serum (Lonza). All culture media were supplemented with 4 mM glutamine, 100 μg/mL gentamicin, 200 U/mL penicillin and 200 μg/mL streptomycin (Lonza). The NHDF fibroblasts were cultured in Lonza medium cc3132 KT FGM-2 BulletKit.
(§3) The overall growth level of the human cancer cell lines was determined using a colorimetric MTT (3-(4,5-dimethylthiazol-2yl)-2,5-diphenyltetrazolium bromide, Sigma, Belgium) assay as detailed previously. Briefly, this test measures the number of metabolically active (thus living) cells that are able to transform the yellow MTT into the blue formazan dye via a mitochondrial reduction involving succinate dehydrogenase. The amount of formazan obtained at the end of the experiment (measured by spectrophotometry) is directly proportional to the number of living cells. The determination of the optical density in the control compared to the treated cells therefore enables quantitative measurements of the effects of compounds on the growth of normal as well as cancer cells in vitro.
(§4) Each experimental condition was performed in six replicates.

A further assay relates to SKMEL-28 melanoma cells. Put plainly: MTT colorimetric in vitro growth inhibition assay. It is filed as cell-based, human. The conditions noted are these: read-out: IC50 (nM) SKMEL-28.
Text: as §1, §2, §3, §4

The next assay has as its system Hs683 glioma cells. Put plainly: MTT colorimetric in vitro growth inhibition assay. It is filed as cell-based, human. The conditions noted are these: read-out: IC50 (nM) Hs683.
Text: as §1, §2, §3, §4

A further assay deals with T98G glioma cells. Nature of the assay: MTT colorimetric in vitro growth inhibition assay. In kind it is cell-based, human. As to conditions: read-out: IC50 (nM) T98G.
Text: as §1, §2, §3, §4

Assay [2] concerns MCF-7 breast cancer cells. Nature of the assay: MTT colorimetric in vitro growth inhibition assay. As to conditions: read-out: IC50 (nM) MCF-7. It is filed as cell-based, human.
Text: as §1, §2, §3, §4

A further assay deals with HT-29 colon cancer cells. Put plainly: MTT colorimetric in vitro growth inhibition assay. In kind it is cell-based, human. As to conditions: read-out: IC50 (nM) HT-29.
Text: as §1, §2, §3, §4

Another assay relates to U373 glioma cells. Put plainly: MTT colorimetric in vitro growth inhibition assay. It is filed as cell-based, human. As to conditions: read-out: IC50 (nM) U373.
Text: as §1, §2, §3, §4

Assay [3] relates to PC-3 prostate cancer cells. Put plainly: MTT colorimetric in vitro growth inhibition assay. In kind it is cell-based, human. The conditions noted are these: read-out: IC50 (nM) PC-3.
Text: as §1, §2, §3, §4

Another assay concerns A549 NSCLC cells. Nature of the assay: MTT colorimetric in vitro growth inhibition assay. It is filed as cell-based, human. As to conditions: read-out: IC50 (nM) A549.
Text: as §1, §2, §3, §4

Assay [4] addresses T1, purified human α1β1 Na+/K+-ATPase (Homo sapiens, UniProt P05023).
T1 construct: made in house; host or cells: Pichia pastoris strain SMD1165; detergent-soluble complex purified
Nature of the assay: Inhibition of NaK activity of purified detergent-soluble complex (Pi release). In kind it is biochemical. As to conditions: 37°C, 1 h, 1 mM ATP; read-out: Ki for inhibition of NaK activity of purified human α1β1. How it is done: The inhibition of NaK activity of the purified detergent-soluble α1β1, α2β1, and α3β1 complexes by cardiotonic steroids and an analysis of the inhibition data (Ki values) were also performed as previously described. The inhibitors were added to the recombinant enzyme (0.08–0.2 μg of protein) in 400 μl of reaction medium containing 130 mM NaCl, 5 mM KCl, 3 mM MgCl2, 25 mM histidine, pH 7.4, 1 mM EGTA, 0.01 mg/ml SOPS, 0.001 mg/ml cholesterol, and 0.005 mg/ml C12 E8 in 48-well plates. The reaction (37°C for 1 h) was started by the addition of 1mM ATP. Pi release was measured with a malachite green dye to detect the phosphor-molybdate (Pi Color Lock, Innova Biosciences). The percent inhibition V /V0 was calculated for each cardiac glycoside concentration, and Ki values were obtained by fitting the data to the function V /V0 = Ki /([CG] + Ki ) (using Kaleidagraph). V0 and V represent the control rate and rate of NaK-ATPase activity at particular concentrations of cardiac glycosides, [CG], respectively.
(§5) Average KD or Ki values ± SEM for each isoform were calculated. Statistical significance was calculated by the unpaired Students t-test. P values <0.05 were considered significant.

For the next assay, the target named is T2, human α3β1 NaK complex (Homo sapiens, UniProt P13637).
T2 construct: made in house; host or cells: Pichia pastoris strain SMD1165 (membranes)
Put plainly: 3H-ouabain competitive displacement on P. pastoris membranes. It is filed as binding. Here is the method:
(§6) K0.5 was calculated using a one site inhibition model: B/BCG=0 = K0.5/([CG] + K0.5). […] Binding of each cardiac glycoside was estimated in 3 separate experiments.
as §5

The next assay deals with T3, human α2β1 NaK complex (Homo sapiens, UniProt P50993).
T3 construct: made in house; host or cells: Pichia pastoris strain SMD1165 (membranes)
Described as above. It is filed as binding. Here is the method: as §6, §5

Another assay deals with T4, human α1β1 NaK complex (Homo sapiens, UniProt P05023).
T4 construct: made in house; host or cells: Pichia pastoris strain SMD1165 (membranes)
The description is as above. As to conditions: 3H-ouabain displacement, three independent experiments; read-out: Affinity (nM) α-1 (KD ± SEM). It is filed as binding. Here is the method: as §6, §5

For the next assay, the system named is NHDF fibroblasts. Nature of the assay: MTT growth inhibition in non-cancerous control cell line. It is filed as cell-based. The conditions noted are these: NHDF, normal human fibroblasts, read-out: in vitro growth inhibitory effects (IC50) in NHDF fibroblasts.
Text: as §1, §2, §3, §4

The mark [5] stands for this setting: 72 h, mean over eight human cancer cell lines, three days of culture.
Setting [6] is: Homo sapiens, SK-MEL-28, 72 h, three days of culture, * three independent experiments, ** one experiment, six replicates.
The mark [7] stands for this setting: Homo sapiens, Hs 683, 72 h, three days of culture, * three independent experiments, ** one experiment, six replicates.
The mark [8] stands for this setting: Homo sapiens, T98G, 72 h, three days of culture, * three independent experiments, ** one experiment, six replicates.
Where [9] appears, read: Homo sapiens, MCF7, 72 h, three days of culture, * three independent experiments, ** one experiment, six replicates.
Setting [10] is: Homo sapiens, HT-29, 72 h, three days of culture, * three independent experiments, ** one experiment, six replicates.
Setting [11] is: Homo sapiens, U373 MG, 72 h, three days of culture, * three independent experiments, ** one experiment, six replicates.
[12] abbreviates: Homo sapiens, 72 h, three days of culture, * three independent experiments, ** one experiment, six replicates.
The mark [13] stands for this setting: Homo sapiens, A549, 72 h, three days of culture, * three independent experiments, ** one experiment, six replicates.
Setting [14] is: three days of culture, * three independent experiments, ** one experiment, six replicates.

Consider `C[C@]12CC[C@H](O)C[C@H]1CC[C@@H]1[C@@H]2CC[C@]2(C)[C@@H](C3=CC(=O)OC3)CC[C@]12O` [Digitoxigenin], for which the IC50 was 733 ± 349 nM in assay [1] (Homo sapiens, 72 h); 2500 nM with SKMEL-28 melanoma cells (Homo sapiens, SK-MEL-28, 72 h); 79 nM in the assay on Hs683 glioma cells (Homo sapiens, Hs 683, 72 h); 166 nM in the assay with T98G glioma cells (Homo sapiens, T98G, 72 h); 2130 nM in [2] (Homo sapiens, MCF7, 72 h); 230 nM in the assay with HT-29 colon cancer cells (Homo sapiens, HT-29, 72 h). Also, the IC50 in the assay on U373 glioma cells (Homo sapiens, U373 MG, 72 h) was 369 nM; in assay [3] (Homo sapiens, 72 h), 298 nM; in the assay with A549 NSCLC cells (Homo sapiens, A549, 72 h), 92 nM.

Turning to `C[C@H]1O[C@@H](O[C@H]2[C@@H](O)C[C@H](O[C@H]3[C@@H](O)C[C@H](O[C@H]4CC[C@@]5(C)[C@H](CC[C@@H]6[C@@H]5CC[C@]5(C)[C@@H](C7=CC(=O)OC7)CC[C@]65O)C4)O[C@@H]3C)O[C@@H]2C)C[C@H](O)[C@@H]1O` [Digitoxin, digitoxin], the IC50 was 75 ± 26 nM in [1] (setting [5]); 59 nM in the assay with SKMEL-28 melanoma cells (setting [6]); 15 nM in the assay on Hs683 glioma cells (setting [7]); 32 nM with T98G glioma cells (setting [8]); 187 nM in [2] (setting [9]); 198 nM in the assay with HT-29 colon cancer cells (setting [10]). Moreover, the IC50 was determined as 61 nM with U373 glioma cells (setting [11]), 37 nM in [3] (setting [12]) and 11 nM in the assay with A549 NSCLC cells (setting [13]).

In the case of `C[C@]12CC[C@H](O)C[C@H]1CC[C@@H]1[C@@H]2C[C@@H](O)[C@]2(C)[C@@H](C3=CC(=O)OC3)CC[C@]12O` [Digoxigenin, digoxigenin], the 50% inhibitory concentration (IC50) in assay [1] (setting [5]) came out at 2900 nM; in the assay with SKMEL-28 melanoma cells (setting [6]), 4000 nM; in the assay with Hs683 glioma cells (setting [7]), 794 ± 22 nM; with T98G glioma cells (setting [8]), 1170 nM; in assay [2] (setting [9]), 5320 nM; in the assay with HT-29 colon cancer cells (setting [10]) it was 4460 nM. The 50% inhibitory concentration (IC50) is 3190 nM in the assay on U373 glioma cells (setting [11]), 3880 nM in assay [3] (setting [12]) and 395 ± 34 nM in the assay with A549 NSCLC cells (setting [13]).

As for `C[C@]12C[C@@H](O)[C@H]3[C@@H](CC[C@]4(O)C[C@@H](O)C[C@@H](O)[C@]34CO)[C@@]1(O)CC[C@@H]2C1=CC(=O)OC1` [Ouabagenin, ouabagenin], the IC50 in assay [1] (mean over eight human cancer cell lines, three days of culture) was 3050 nM; with SKMEL-28 melanoma cells (setting [14]) it was 2560 nM; with Hs683 glioma cells (setting [14]), 1900 nM; with T98G glioma cells (setting [14]), 3600 nM; in [2] (setting [14]), 4010 nM; in the assay with HT-29 colon cancer cells (setting [14]), 3480 nM. Further, the IC50 came out at 5280 nM in the assay with U373 glioma cells (setting [14]), 2710 nM in assay [3] (setting [14]) and 866 ± 25 nM in the assay on A549 NSCLC cells (setting [14]). Besides, the Ki in assay [4] was found to be 721 ± 70 nM.

In the case of `C[C@]12CC[C@H](O)C[C@H]1CC[C@@H]1[C@@H]2[C@H](O)C[C@]2(C)[C@@H](c3ccc(=O)oc3)CC[C@]12O` [Gamabufotalin, gamabufotalin], the IC50 in assay [1] (Homo sapiens, 72 h) came to 26 ± 4 nM; with SKMEL-28 melanoma cells (Homo sapiens, SK-MEL-28, 72 h), 22 ± 1 nM; in the assay with Hs683 glioma cells (Homo sapiens, Hs 683, 72 h), 14 ± 3 nM; with T98G glioma cells (Homo sapiens, T98G, 72 h), 31 ± 8 nM; in assay [2] (Homo sapiens, MCF7, 72 h), 40 ± 7 nM; with HT-29 colon cancer cells (Homo sapiens, HT-29, 72 h), 37 ± 3 nM. Besides, the IC50 with U373 glioma cells (Homo sapiens, U373 MG, 72 h) was 34 ± 1 nM; in assay [3] (Homo sapiens, 72 h), 22 ± 4 nM; with A549 NSCLC cells (Homo sapiens, A549, 72 h), 7 ± 1 nM; in the assay on NHDF fibroblasts it was above 10000 nM. The Kd at human α3β1 NaK complex (3H-ouabain displacement, three independent experiments, read-out: Affinity (nM) α-3 (KD ± SEM)) was found to be 236 ± 14 nM; on human α2β1 NaK complex (3H-ouabain displacement, three independent experiments, read-out: Affinity (nM) α-2 (KD ± SEM)), 247 ± 30 nM; at human α1β1 NaK complex, 243 ± 48 nM. Also, the “Selectivity α-1 / α-3” value at human α3β1 NaK complex (ratio of KD α-1 to KD α-3) came to 1.0. In addition, the “Selectivity α-1 / α-2” value at human α2β1 NaK complex (ratio of KD α-1 to KD α-2) was 1.0.
